The target in experiment [1] is T1, Macrophage metalloelastase (Homo sapiens, UniProt P39900). In words: Inhibition of recombinant human MMP12 catalytic domain (Gly106 to Gly263 residues) expressed in Escherichia coli BL21 Codon Plus cells using 5-FAM/QXL520 FRET peptide as substrate preincubated for 15 mins followed by substrate addition and measured at 3 mins interval for 60 mins by fluorescence assay.
Target sequence in this assay (P39900 whole entry, the tested form may be a part): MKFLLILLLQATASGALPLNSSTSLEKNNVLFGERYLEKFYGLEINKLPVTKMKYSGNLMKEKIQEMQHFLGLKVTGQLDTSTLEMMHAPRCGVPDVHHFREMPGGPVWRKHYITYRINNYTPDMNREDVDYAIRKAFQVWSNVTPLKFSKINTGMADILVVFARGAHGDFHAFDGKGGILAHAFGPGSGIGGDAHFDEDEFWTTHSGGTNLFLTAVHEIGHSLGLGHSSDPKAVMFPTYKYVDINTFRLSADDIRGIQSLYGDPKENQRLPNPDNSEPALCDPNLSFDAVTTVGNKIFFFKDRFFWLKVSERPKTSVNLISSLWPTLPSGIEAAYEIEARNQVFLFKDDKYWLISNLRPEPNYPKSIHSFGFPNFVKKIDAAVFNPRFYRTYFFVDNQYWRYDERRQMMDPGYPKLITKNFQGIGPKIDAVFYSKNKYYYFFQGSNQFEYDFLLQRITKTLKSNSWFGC

For experiment [2], the target named is T1, Macrophage metalloelastase. The experiment is described as follows: Binding affinity to recombinant human 15N-labelled MMP12 catalytic domain (Gly106 to Gly263 residues) expressed in Escherichia coli BL21 Codon Plus cells assessed as ratio of peak intensities of L212 and I220 in bound versus the unbound form at 10 uM by 1D-1H NMR analysis.
Target sequence in this assay (P39900 106-470 limits assumed): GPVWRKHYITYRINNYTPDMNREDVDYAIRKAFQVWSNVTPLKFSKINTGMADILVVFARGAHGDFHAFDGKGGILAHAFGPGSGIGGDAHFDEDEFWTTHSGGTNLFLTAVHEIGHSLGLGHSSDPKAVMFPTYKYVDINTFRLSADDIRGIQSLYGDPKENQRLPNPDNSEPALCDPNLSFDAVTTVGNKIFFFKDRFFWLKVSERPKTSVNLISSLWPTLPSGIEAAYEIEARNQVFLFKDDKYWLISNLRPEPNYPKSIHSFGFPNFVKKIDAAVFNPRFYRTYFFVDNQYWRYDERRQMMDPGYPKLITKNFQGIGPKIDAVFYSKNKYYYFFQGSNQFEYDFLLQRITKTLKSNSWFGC

IC50 and Ratio data for 22 compounds are collected here from ChEMBL document CHEMBL4699596, “Therapeutic Targeting of MMP-12 for the Treatment of Chronic Obstructive Pulmonary Disease” (J Med Chem, 2020).

What is called IC50 is the point on the concentration scale where inhibition reaches its midpoint.

Active and inactive are the calls of the source. The rule behind the calls is not given here. Non-standard residues stand in square brackets, D forms with d. Residues, ends and D or L forms follow the SMILES beside them. *: point of attachment. dPhe(4-CF3) = N[C@H](Cc1ccc(C(F)(F)F)cc1)C(=O)O; dBip = N[C@H](Cc1ccc(-c2ccccc2)cc1)C(=O)O; dPhe(3-Cl) = N[C@H](Cc1cccc(Cl)c1)C(=O)O; dPhe(3-Me) = Cc1cccc(C[C@@H](N)C(=O)O)c1; dPhe(4-Cl) = N[C@H](Cc1ccc(Cl)cc1)C(=O)O; dPhe(4-Me) = Cc1ccc(C[C@@H](N)C(=O)O)cc1; dPhe(2-Me) = Cc1ccccc1C[C@@H](N)C(=O)O; dPhe(3-F) = N[C@H](Cc1cccc(F)c1)C(=O)O; dPhe(4-F) = N[C@H](Cc1ccc(F)cc1)C(=O)O; 2Nal = N[C@@H](Cc1ccc2ccccc2c1)C(=O)O; dPhe(2-F) = N[C@H](Cc1ccccc1F)C(=O)O; dIgl = N[C@@H](C(=O)O)C1Cc2ccccc2C1; d(hPhe) = N[C@H](CCc1ccccc1)C(=O)O; Bn = c1ccc(C*)cc1; NHOH = ON*

`CC(=O)N[C@@H](COCc1ccccc1)C(=O)N[C@H](CCc1ccc(C(F)(F)F)cc1)C(=O)N[C@H](Cc1ccccc1)C(=O)NO`: in experiment [1], the IC50 is 16.7 nM. Moreover, the Ratio in experiment [2] was 1.

For `CC(=O)N[C@@H](COCc1ccccc1)C(=O)N[C@H](CCc1ccccc1)C(=O)N[C@H](Cc1ccc(F)c(F)c1F)C(=O)NO`, in experiment [1], the IC50 came out at 75.9 nM. The Ratio in experiment [2] was found to be 1.

Regarding `CC(=O)N[C@@H](COCc1ccccc1)C(=O)N[C@H](CCc1ccccc1)C(=O)N[C@H](Cc1ccc(C)cc1)C(=O)NO` (Ac-Ser(Bn)-[d(hPhe)]-[dPhe(4-Me)]-{NHOH}), the IC50 in experiment [1] came to 20.9 nM. Also, the Ratio in experiment [2] is greater than 1.

As for `CC(=O)N[C@@H](COCc1ccccc1)C(=O)N[C@H](CCCc1ccccc1)C(=O)N[C@H](Cc1ccccc1)C(=O)NO`, in experiment [2], the Ratio is less than 1.

Regarding `CC(=O)N[C@@H](Cc1ccc2ccccc2c1)C(=O)N[C@H](CCc1ccccc1)C(=O)N[C@H](Cc1ccccc1)C(=O)NO` (Ac-[2Nal]-[d(hPhe)]-[dF]-{NHOH}), the IC50 in experiment [1] was determined as 138 nM. Besides, the Ratio in experiment [2] was less than 1.

In the case of `CC(=O)N[C@@H](COCc1ccccc1)C(=O)N[C@H](CCc1ccccc1)C(=O)N[C@H](Cc1ccc(OC(C)=O)cc1)C(=O)NO` (Ac-Ser(Bn)-[d(hPhe)]-[dY](Ac)-{NHOH}), the IC50 in experiment [1] is 36.1 nM. Further, in experiment [2], the Ratio turned out to be 1.

Take `CC(=O)N[C@@H](COCc1ccccc1)C(=O)N[C@H](CCc1ccccc1)C(=O)N[C@H](Cc1ccccc1F)C(=O)NO` (Ac-Ser(Bn)-[d(hPhe)]-[dPhe(2-F)]-{NHOH}): the IC50 in experiment [1] worked out at 27.8 nM. The Ratio in experiment [2] is greater than 1.

As for `CC(=O)N[C@@H](COCc1ccccc1)C(=O)N[C@H](CCc1ccccc1)C(=O)N[C@H](Cc1ccc(F)cc1)C(=O)NO` (Ac-Ser(Bn)-[d(hPhe)]-[dPhe(4-F)]-{NHOH}), the IC50 in experiment [1] stood at 42 nM. In addition, the Ratio in experiment [2] is greater than 1.

`CC(=O)N[C@@H](COCc1ccccc1)C(=O)N[C@H](Cc1ccc(-c2ccccc2)cc1)C(=O)N[C@H](Cc1ccccc1)C(=O)NO` (Ac-Ser(Bn)-[dBip]-[dF]-{NHOH}): in experiment [2], the Ratio result is “inactive”.

Consider `CC(=O)N[C@@H](COCc1ccccc1)C(=O)N[C@H](CCc1ccccc1)C(=O)N[C@H](Cc1cccc(C)c1)C(=O)NO` (Ac-Ser(Bn)-[d(hPhe)]-[dPhe(3-Me)]-{NHOH}), for which the IC50 in experiment [1] amounted to 35.5 nM. Besides, the Ratio in experiment [2] is greater than 1.

Consider `CC(=O)N[C@@H](COCc1ccccc1)C(=O)N[C@H](CCc1ccccc1)C(=O)N[C@H](Cc1ccccc1C)C(=O)NO` (Ac-Ser(Bn)-[d(hPhe)]-[dPhe(2-Me)]-{NHOH}), for which the Ratio in experiment [2] is less than 1.

As to `CC(=O)N[C@@H](COCc1ccccc1)C(=O)N[C@H](CCc1ccccc1)C(=O)N[C@H](Cc1cccc(F)c1)C(=O)NO` (Ac-Ser(Bn)-[d(hPhe)]-[dPhe(3-F)]-{NHOH}), in experiment [1], the IC50 turned out to be 30.2 nM. Further, the Ratio in experiment [2] is greater than 1.

Turning to `CC(=O)N[C@@H](COCc1ccccc1)C(=O)N[C@H](CCc1ccccc1)C(=O)N[C@H](Cc1cccc(Cl)c1)C(=O)NO` (Ac-Ser(Bn)-[d(hPhe)]-[dPhe(3-Cl)]-{NHOH}), the IC50 in experiment [1] was 47.2 nM. For the same compound, the Ratio in experiment [2] was greater than 1.

With `CC(=O)N[C@@H](COCc1ccccc1)C(=O)N[C@H](CCc1ccccc1)C(=O)N[C@H](Cc1ccc(Cl)cc1)C(=O)NO` (Ac-Ser(Bn)-[d(hPhe)]-[dPhe(4-Cl)]-{NHOH}), in experiment [1], the IC50 was determined as 35.1 nM. The Ratio in experiment [2] was greater than 1.

`CC(=O)N[C@@H](CCCc1ccccc1)C(=O)N[C@H](CCc1ccccc1)C(=O)N[C@H](Cc1ccccc1)C(=O)NO`: the IC50 in experiment [1] was found to be 19.5 nM. Further, in experiment [2], the Ratio was greater than 1.

For `CC(=O)N[C@@H](Cc1c[nH]c2ccccc12)C(=O)N[C@H](CCc1ccccc1)C(=O)N[C@H](Cc1ccccc1)C(=O)NO` (HELM PEPTIDE1{[ac].W.[O=C([C@@H](CCc1ccccc1)N[*:1])[*:2]].[dF].[ON[*:1]]}$$$$V2.0), the 50% inhibitory concentration (IC50) in experiment [1] came out at 34.9 nM. The Ratio in experiment [2] stood at 1.

Take `CC(=O)N[C@@H](COCc1ccccc1)C(=O)N[C@H](CCc1ccccc1)C(=O)N[C@H](Cc1ccc(C(F)(F)F)cc1)C(=O)NO` (Ac-Ser(Bn)-[d(hPhe)]-[dPhe(4-CF3)]-{NHOH}): the IC50 in experiment [1] came out at 57.1 nM. Besides, the Ratio in experiment [2] is 1.

Turning to `CC(=O)N[C@@H](COCc1ccccc1)C(=O)N[C@H](CCc1ccccc1)C(=O)N[C@H](Cc1ccc(OS(=O)(=O)F)cc1)C(=O)NO`, the Ratio in experiment [2] was less than 1.

`COc1ccc(CC[C@@H](NC(=O)[C@H](COCc2ccccc2)NC(C)=O)C(=O)N[C@H](Cc2ccccc2)C(=O)NO)cc1`: the IC50 in experiment [1] was 16.3 nM. Further, the Ratio in experiment [2] was greater than 1.

`CC(=O)N[C@@H](COCc1ccccc1)C(=O)N[C@@H](C(=O)N[C@H](Cc1ccccc1)C(=O)NO)C1Cc2ccccc2C1` (Ac-Ser(Bn)-[dIgl]-[dF]-{NHOH}): in experiment [2], the Ratio entry was “inactive”.

With `COc1ccc(CCC[C@H](NC(C)=O)C(=O)N[C@H](CCc2ccccc2)C(=O)N[C@H](Cc2ccccc2)C(=O)NO)cc1`, the IC50 in experiment [1] was 20.5 nM. Moreover, the Ratio in experiment [2] was greater than 1.

`CC(=O)N[C@@H](COCc1ccccc1)C(=O)N[C@H](CCc1ccccc1)C(=O)N[C@H](Cc1ccc(O)cc1)C(=O)NO` (Ac-Ser(Bn)-[d(hPhe)]-[dY]-{NHOH}): in experiment [1], the IC50 amounted to 42.1 nM. Also, the Ratio in experiment [2] is greater than 1.
